Laboratory results: patent publication US10913757B2, “Hydroxycinnamic derivatives, methods and uses thereof” (UNIVERSIDADE DO PORTO, priority 2016, dated 2021)

Test system: rat liver mitochondria (RLM) membranes
Experiment: RLM lipid peroxidation, TBARS assay (FeSO4/H2O2/ascorbate)
Type: biochemical
Settings: 5 μM pre-incubation, FIG. 4A
Protocol: In an embodiment, and as an example, AntiOxCINs antioxidant performance, on the protection of lipid peroxidation of RLM membranes was determined. Two different oxidative stressor agents, FeSO4/H2O2/ascorbate and ADP/FeSO4, and two end-points, TBARS production and oxygen-consumption, respectively, have been used. MitoQ was used as reference (FIGS. 4 and 5).
In an embodiment, the evaluation of AntiOxCINs functional mitochondrial toxicity profile was performed in rat liver mitochondria (RLM). RLM were prepared by tissue homogenization followed by differential centrifugations in ice-cold buffer containing 250 mM sucrose, 10 mM HEPES (pH 7.4), 1 mM EGTA, and 0.1% fat-free bovine serum albumin. […] The protein concentration was determined by the biuret assay using BSA as a standard.
In an embodiment, the effect of AntiOxCINs on RLM lipid peroxidation was measured by thiobarbituric acid reactive species (TBARS) assay as follows: RLM (2 mg protein/ml) were incubated in 0.8 mL medium containing 100 mM KCl, 10 mM Tris-HCl and pH 7.6, at 37° C., supplemented with 5 mM glutamate/2.5 mM malate as substrate. […] The fluorescence of aliquots (250 μL) of the organic layer was analyzed in a plate reader (λEx=515 nm; λEm=553 nm) for TBARS. […] Data are means±SEM of three independent experiments and are expressed as % of control (control=100%).

## CS(=O)(=O)[O-].O=C(/C=C/c1ccc(O)c(O)c1)NCCCCCC[P+](c1ccccc1)(c1ccccc1)c1ccccc1 [AntiOxCIN2, (E)-(6-(3-(3,4-dihydroxyphenyl)prop-2-enamido)hexyl)triphenylphosphonium methanesulfonate]
  prevention of mitochondria lipid peroxidation (TBARS levels): most effective
